Assay results reported in patent US7129073B2, “Regulation of neuronal function through metabotropic glutamate receptor signaling pathways” (The Rockefeller University, priority 2001, dated 2006).
Entries after “also recorded” stand apart in the source; their conditions may differ.

Legend:
ER = settings: read-out: IC50, competition with fluorescein-labeled estradiol for binding to ER; FP-based assay; cited from earlier work
HA-tagged CK1ε = test: kinase activity of HA-CK1ε immunoprecipitated from transfected N2a cells, DARPP-32 as substrate; assay type: cell-based; settings: 30 min before DHPG 100 μM 2 min, CKI-7 100 μM, L-AP3 100 μM, U73122 10 μM, BAPTA/AM 20 μM, cyclosporin A 1 μM
Method: Neuroblastoma N2a cells were cultured in DMEM containing 5% fetal bovine serum (FBS) to 50–60% confluency. Four micrograms of the expression plasmid for HA-CK1ε were transfected into N2a cells in 100 mm dishes using FuGENE™ 6. Twenty-four hours after transfection, cells were incubated in phosphate-buffered Krebs-Henseleit solution (Sigma) for 10 minutes at room temperature. Cells were then incubated with or without CKI inhibitor for 30 minutes before treating with the group I mGluR agonist (S)-3,5-DHPG (100 μM) for 2 minutes. Cells were then lysed in one ml of lysis buffer containing 1% Nonidet P-40 (NP-40), 150 mM NaCl, 0.1% SDS, 50 mM Tris (pH 8.0), 5 mM Na3VO4, 20 mM NaF, 20 mM β-glycerol-phosphate and protease inhibitors. Lysates were centrifuged at 10,000 g and supernatants were used for immunoprecipitation and kinase assay.
For immunoprecipitation of CKI from N2a cells, lysates (1 mg of total protein) were pre-cleared with 5 μl of mouse IgG and 50 μl of protein A agarose for 30 minutes. Five μl of anti-HA antibody were added and samples were incubated for 1 hour at 4° C. Five μl of anti-mouse rabbit IgG and 50 μl of protein A agarose were then added for 45 minutes. Immuno-complexes were washed three times in lysis buffer, two times in kinase buffer (30 mM Hepes (pH 7.5), 7 mM MgCl2, 0.5 mM DTT). CKI assays were performed in a 30 μl assay volume with 2 μg of purified DARPP-32, 500 μM ATP and 5 μCi γ-^32P-ATP. Samples were incubated at 30° C. for 20 minutes, reactions were stopped by addition of SDS-sample buffer, and samples were boiled for 5 minutes. Samples were separated by SDS-PAGE (12% polyacrylamide). SDS-PAGE gels were dried and exposed to Kodak film for autoradiography. Bands were quantified by analysis using a Molecular Dynamics PhosphorImager.
Neuroblastoma N2a cells were cultured to 50–60% confluence in DMEM containing 5% fetal bovine serum. Four μg of the expression plasmid for HA-CK1ε or myc-MM2-CK1ε was transfected into N2a cells in 100 mm dishes using FuGENE6™. Twenty-four hours after transfection, cells were incubated at room temperature in phosphate-buffered Kreb's-Henseleit solution (Sigma) for 10 min and then with or without inhibitors for 30 min before treating with (S)-3,5-DHPG, for 2 min. Cells were then lysed in 1 ml of radio-immunoprecipitation (RIPA) buffer containing 1% NP-40, 150 mM NaCl, 0.1% SDS, 50 mM Tris, pH 8.0, 5 mM Na3VO4, 20 mM NaF, 20 mM β-glycerol-phosphate and protease inhibitors. Lysates were centrifuged at 10,000 g, and supernatants were used for immunoprecipitation and kinase assay.
For immunoprecipitation of CK1ε from N2a cells, lysates (1 mg of total protein) were precleared with 5 μl of mouse IgG (ICN) and 50 μl of protein A agarose for 30 min. Five μl (approximately 2 μg) of anti-HA or anti-myc antibody was added and samples were incubated for 1 h at 4° C. Five μl of anti-mouse rabbit IgG and 50 μl of protein A agarose were then added for 45 min. Immuno-complexes were washed 3 times in lysis buffer and 2 times in kinase buffer (30 mM Hepes, pH 7.5, 7 mM MgCl2, 0.5 mM DTT).
(§1) CK1 assays were performed in a 30 μl assay volume with 2 μg of purified DARPP-32, 500 μM ATP and 5 μCi γ-^32P-ATP. Reactions were started by addition of the ATP. Samples were incubated at 30° C. for 10 min and reactions were stopped by addition of SDS-sample buffer and boiled for 5 min. Samples were separated by SDS-PAGE (12% polyacrylamide). SDS-PAGE gels were dried and exposed to Kodak film for autoradiography. Results were quantified using a Molecular Dynamics PHOSPHORIMAGER™. Immunoprecipitation and assay of Cdk5 were performed as disclosed (20).

[1] = system: Thr75 of DARPP-32 (Cdk5 site); test: DARPP-32 phospho-Thr75 immunoblot in neostriatal slices; assay type: cell-based, mouse; settings: for effect on basal phosphorylation of Thr75 / effect of pretreatment on the DHPG effect on Thr75 phosphorylation: U73122 10 μM 30 min, BAPTA/AM 20 μM; for effect of pretreatment on the DHPG effect on Thr75 phosphorylation: before DHPG 100 μM 2 min, L-AP3 100 μM 20 min, ZM241385 100 μM, cyclosporin A 5 μM 1 h
Method: (§2) Neostriatal slices were prepared from male C57/BL6 mice (6–8 weeks old) in accordance with methods known in the art (Nishi, A. et al. 1997, J. Neurosci. 17:8147–8155). Slices were treated with a drug. After drug treatment, slices were immediately frozen in liquid nitrogen, and stored at −80° C. until assayed.
(§3) Frozen slices were sonicated in hot homogenization buffer containing 1% SDS and 50 mM NaF, and samples were boiled for 10 minutes. SDS-PAGE sample buffer was then added and samples were boiled for 5 minutes. Samples (approximately 120 μg of total protein) were separated by SDS-PAGE (10% polyacrylamide) and then transferred to nitrocellulose. In most studies, immunoblots were first probed with anti-phospho-Ser137 DARPP-32 antibody. The blots were then stripped and probed with anti-phospho-Thr75 DARPP-32 antibody. Blots were stripped again and probed with anti-total DARPP-32 antibody. […] Chemiluminescence was detected by autoradiography and bands were quantified by analysis of scanned images using NIH IMAGE 1.52 software. Data were statistically analyzed by Student's t test in Microsoft EXCEL™ software as indicated.
(§4) Neostriatal slices were prepared from male C57/BL6 mice (6–8 weeks old) as disclosed (22). Slices were treated with drugs as specified in the text and figure legends. After drug treatment, slices were immediately frozen in liquid nitrogen, and stored at −80° C. until assayed.
(§5) Frozen slices were sonicated in hot homogenization buffer containing 1% SDS and 50 mM NaF, and samples were boiled for 10 min. SDS-PAGE sample buffer was then added and samples were boiled for 5 min. Samples (approximately 120 μg protein) were separated by SDS-PAGE (10% polyacrylamide) and transferred to nitrocellulose. Immunoblots were first probed with antiphospho-Ser-137 DARPP-32 antibody. The blots were stripped and probed with anti-phosphoThr-75 DARPP-32 antibody. Blots were stripped again and probed with anti-total DARPP-32 antibody. Antibody binding was detected by enhanced chemiluminescence (ECL) using X-ray film, and images were analyzed by laser scanning densitometry using NIH Image 1.52 software. Data were statistically analyzed by Student's t-test using Microsoft EXCEL™ software as indicated.

Cdk5 = Cdk5 kinase activity immunoprecipitated from neostriatal slices, histone H-1 as substrate; assay type: cell-based, mouse; settings: for effect of pretreatment on the effect of DHPG on Cdk5 kinase activity: CKI-7 dose-dependent, U73122 10 μM, BAPTA/AM 20 μM, cyclosporin A 5 μM
Method: as §2
For Cdk5 immunoprecipitation, striatal tissue slices (approximately 150 μg total protein) were lysed using a Dounce homogenizer and 1 ml of lysis buffer (150 mM NaCl, 20 mM Tris-HCl (pH 7.4), 1 mM EDTA, 0.5% NP-40, 5 mM NaF, 5 mM Na3PO4 and protease inhibitors). Lysates were centrifuged at 10,000 g for 10 minutes at 4° C. Supernatants were pre-cleared by adding rabbit IgG-conjugated agarose for 40 minutes at 4° C. Ten μl of Cdk5 antibody conjugated to agarose were added and samples were incubated for 1 hour at 4° C. with mixing. Agarose pellets were collected and washed three times with 1 ml of lysis buffer and two times with kinase assay buffer (50 mM Hepes (pH 7.5), 10 mM MgCl2, 1 mM DTT). Cdk5 kinase assays were performed in a 30-μl reaction mixtures with 2 μg Histone H-1, 500 μM ATP and 5 μCi of γ-^32P-ATP. Samples were incubated at 30° C. for 10 minutes, reactions were stopped by addition of SDS-sample buffer, and samples were boiled for 5 minutes. Samples were separated by SDS-PAGE and analyzed as disclosed above for CKI assays. Data were analyzed by Student's t-test in Microsoft Excel software as indicated, with significance defined as p<0.05.
as §1

[2] = system: Ser137 of DARPP-32 (CK1 site); test: DARPP-32 phospho-Ser137 immunoblot in neostriatal slices; assay type: cell-based, mouse; settings: for effect on basal phosphorylation of Ser137 / effect of pretreatment on the DHPG effect on Ser137 phosphorylation: U73122 10 μM 30 min, BAPTA/AM 20 μM; for effect of pretreatment on the DHPG effect on Ser137 phosphorylation: before DHPG 100 μM 2 min, L-AP3 100 μM 20 min, ZM241385 100 μM, cyclosporin A 5 μM 1 h
Method: as §2, §3, §4, §5

[3] = system: voltage-dependent Ca2+ channels; test: whole-cell recordings of voltage-dependent Ca2+ channels in dissociated neostriatal neurons; assay type: cell-based, mouse; settings: CK1–7 100 μM, butyrolactone 25 μM (FIG. 6)
Method: Neostriatal neurons from 3- to 4-week-old mice were acutely dissociated by using procedures similar to those disclosed in Eberwine et al. (1995, Prog. Brain Res. 105:117–126). Whole-cell current recordings used standard voltage-clamp techniques. The internal solution consisted of 180 mM N-methyl-D-glucamine, 40 mM Hepes, 4 mM MgCl2, 0.5 mM 1,2-bis(2-aminophenoxy)ethane-N,N,N′,N′-tetraacetate, 12 mM phosphocreatine, 2 mM Na2ATP, 0.2 mM Na3GTP, 0.1 mM leupeptin (pH 7.2–7.3), 265–270 mosm/liter. The external solution consisted of 135 mM NaCl, 20 mM CsCl, 1 mM MgCl2, 10 mM Hepes, 0.001 mM tetrodotoxin, 5 mM BaCl2, 10 mM glucose (pH 7.3), 300–305 mosm/liter. Recordings were obtained with an Axon Instruments 200B patch clamp amplifier that was controlled and monitored with an IBM PC running PCLAMP™ (v. 8) with a DigiData 1320 series interface (Axon Instruments, Foster City, Calif.). Electrode resistances were typically 2–4 MΩ in the bath. After seal rupture, series resistance (4–10 MΩ) was compensated (70–90%) and periodically monitored. Drugs were applied with a gravity-fed “sewer pipe” system. The array of application capillaries was positioned 250 μm from the cell under study. Solution changes were effected by altering the position of the array with a DC drive system controlled by a microprocessor-based controller (Newport-Klinger, Irvine, Calif.). Data analyses were performed with AXOGRAPH™ (Axon Instruments), […]™ (Albeck Software, Reading, Pa.), and […]™ (Abacus Concepts, Berkeley, Calif.).

[4] = 1 μM butyrolactone, 30 min before DHPG 2 min
[5] = butyrolactone 5 μM and 10 μM, 30 min before DHPG 2 min
[6] = slices treated with drug alone: DHPG 100 μM, ionomycin 2 μM

In the case of 4-OH-tamoxifen, the IC50 (ER) is listed as 26 nM.
For 17β-estradiol, the IC50 (ER) is listed as 5.6 nM.
In the case of `CC(=O)OCOC(=O)CN(CC(=O)OCOC(C)=O)c1ccccc1OCCOc1ccccc1N(CC(=O)OCOC(C)=O)CC(=O)OCOC(C)=O` [BAPTA/AM], the “effect of pre-incubation on the ability of DHPG to increase CK1ε activity” value (from here on “effect … to increase CK1ε activity”) (HA-tagged CK1ε) is reported as “abolished”, the “effect on basal phosphorylation of Thr75” value [1] is reported as “did not change” and the “effect of pretreatment on the DHPG effect on Thr75 phosphorylation” value (“effect … on Thr75 phosphorylation” for short) [1] is reported as “abolished”. For the same molecule, the “effect of pretreatment on the effect of DHPG on Cdk5 kinase activity” value (Cdk5) was “abolished”, the “effect on basal phosphorylation of Ser137” value [2] was “did not change” and the “effect of pretreatment on the DHPG effect on Ser137 phosphorylation” value (from here on “effect … on Ser137 phosphorylation”) [2] was “abolished”.
In the case of `N[C@@H](CP(=O)(O)O)C(=O)O` [L-AP3], the “effect … to increase CK1ε activity” value (HA-tagged CK1ε) is reported as “blocked”, the “effect … on Thr75 phosphorylation” value [1] is reported as “blocked” and the “effect … on Ser137 phosphorylation” value [2] is reported as “blocked”.
With `COc1ccc2c(c1)CC[C@@H]1[C@@H]2CC[C@]2(C)[C@@H](NCCCCCCN3C(=O)C=CC3=O)CC[C@@H]12` [U73122] the “effect … to increase CK1ε activity” value (HA-tagged CK1ε) was “abolished”, the “effect on basal phosphorylation of Thr75” value [1] was “did not change” and the “effect … on Thr75 phosphorylation” value [1] was “abolished”. The “effect of pretreatment on the effect of DHPG on Cdk5 kinase activity” value (Cdk5) was “abolished”, the “effect on basal phosphorylation of Ser137” value [2] was “did not change” and the “effect … on Ser137 phosphorylation” value [2] was “abolished”.
For `Nc1nc(NCCc2ccc(O)cc2)nc2nc(-c3ccco3)nn12` [ZM241385], the “effect … on Thr75 phosphorylation” value [1] was “did not affect” and the “effect … on Ser137 phosphorylation” value [2] was “did not affect”.
In the case of `O=C1CCCO1` [butyrolactone], the “effect on basal or DHPG-stimulated DARPP-32 phosphorylation at Thr75” value [1, 4] is reported as “little effect”, the “effect on basal and DHPG-stimulated phosphorylation of Thr75” value [1, 5] is reported as “decreased in a dose-dependent manner” and the “effect on basal or DHPG-stimulated DARPP-32 phosphorylation at Ser137” value [2, 4] is reported as “little effect”. The “effect on basal and DHPG-stimulated phosphorylation of Ser137” value [2, 5] was “unaffected”, the “effect on basal Ca2+ currents” value [3] was “significant reduction; also recorded: reduced” and the “effect on the enhancement of Ca2+ currents by DHPG” value ([3]; DHPG 100 μM) was “eliminated”.
With `C[C@H](CCC(=O)O)C[C@H](C)C[C@H](C)C(=O)/C=C(\O)[C@H](C)C[C@H](C)C/C=C/[C@@H](C)[C@@H](O)[C@@H](C)[C@@H](O)C[C@@H]1CC[C@@](C)([C@H]2CC[C@@](C)([C@@H](C)O)O2)O1` [ionomycin] the “effect on phosphorylation of Thr75 in DARPP-32” value [1, 6] was “increased phosphorylation”, the “increase in Cdk5 kinase activity” value (Cdk5; ionomycin 2 μM for 2 min) was 2 fold and the “effect on phosphorylation of Ser137 in DARPP-32” value [2, 6] was “increased phosphorylation”.
